Data set [1] can be described thus: Pharmacokinetics of noribogaine in healthy volunteers, ascending single oral dose (plasma). The following applies: mean, n = 6; for CL/F: fasted, plasma.
Data set [2] in a line: Treatment emergent adverse events in opioid-dependent patients.
Data set [3] is described as follows: Safety and tolerability of noribogaine in healthy humans. The class given is in vivo, human. Here is the method: (§1) Pulse oximetry and capnography data were collected continuously using a GE Carescape B650 monitoring system from 2 hours prior to dosing and until six hours after dosing, and thereafter at 12, 24, 48 and 72 hours post-dosing. […] Pupillary miosis was assessed by pupillometry.
(§2) Safety and tolerability of noribogaine were tested in the group of volunteers from Example 1. […] Safety evaluations included clinical monitoring, recording of adverse events (AEs), safety laboratory tests, vital signs, ECG telemetry from −2 h to 6 h after dosing, and 12-lead electrocardiograms (ECGs) up to 216 hours post-dosing.

The nature of data set [4]: Efficacy in opioid-dependent patients: time to resumption of OST and withdrawal scales (COWS, SOWS, OOWS). The class given is in vivo, human. Here is the method:
The efficacy of noribogaine in humans was evaluated in opioid-dependent participants in a randomized, placebo-controlled, double-blind trial. […] See U.S. application Ser. No. 14/214,157, filed Mar. 14, 2014 and Ser. No. 14/346,655, filed Mar. 21, 2014, which are incorporated herein by reference in their entireties.
Three cohorts of nine (9) subjects (6 administered noribogaine and 3 administered placebo in each cohort) were evaluated for tolerability, pharmacokinetics, and efficacy. Cohort 1 received a single dose of 60 mg noribogaine or placebo. Cohort 2 received a single dose of 120 mg noribogaine or placebo. Cohort 3 received a single dose of 180 mg noribogaine or placebo. […] Headaches were frequent in the placebo and 60 mg noribogaine treatment groups, but were attenuated in the 120 mg and 180 mg dose groups.
Patients were evaluated based on the Clinical Opiate Withdrawal Scale (COWS), Subjective Opiate Withdrawal Scale (SOWS), and Objective Opiate Withdrawal Scale (OOWS) scoring systems over the period of time between administration of noribogaine (or placebo) until resumption of OST. These scales are outlined in Guidelines for the Psychosocially Assisted Pharmacological Treatment of Opioid Dependence, World Health Organization, Geneva (2009), Annex 10, which is incorporated herein by reference in its entirety. The scales measure the intensity of withdrawal symptoms, based on clinical, subjective, and objective indicia.

Data set [5] is described as follows: Pupillometry (pupillary miosis) in healthy volunteers. The class given is in vivo, human. The following applies: 3-60 mg, p>0.9. Here is the method:
as §1
Summary statistics (means, standard deviations, and coefficients of variation) were determined for each dose group for safety laboratory test data, ECG and pharmacokinetic parameters, and pharmacodynamic variables. Categorical variables were analysed using counts and percentages. Dose-proportionality of AUC and Cmax was assessed using linear regression. The effect of dose on pharmacodynamic parameter values over time was assessed using two-factor analysis of variance (ANOVA). Pairwise comparisons (with Tukey-Kramer adjustment) between each dose group to the placebo were conducted at each time point using the least squares estimates obtained from the ANOVA, using SAS Proc Mixed (SAS ver 6.0).

Data set [6] in a line: Cold pressor test in healthy volunteers. The class given is in vivo, human. On the procedure: Analgesic effect was assessed based on duration of hand immersion in ice water and on visual analog scale (VAS) pain scores upon hand removal from the water bath.
as §2

A short description of data set [7]: Pharmacokinetics in opioid-dependent patients, Phase IB study, single dose. The note with it: human, serum; for half-life / Vd/F: opioid-dependent patients.
Where [8] appears, read: metabolite in plasma after single oral 30 mg noribogaine.
Where [9] appears, read: metabolite in plasma after single oral 60 mg noribogaine.
Setting [10] is: 60 mg, mean ± SD, Cohort 1 (60 mg).
Where [11] appears, read: 120 mg, range, Cohort 2 (120 mg).
Setting [12] is: 180 mg, range, Cohort 3 (180 mg).

Each structure is given as a SMILES string.

In general, Cmax refers to the peak of the concentration-time curve. The term Tmax denotes the time from dosing to the highest level. Consider `CC[C@H]1C[C@@H]2C[C@H]3c4[nH]c5ccc(OC6OC(C(=O)O)C(O)C(O)C6O)cc5c4CCN(C2)[C@@H]13` (stereo partly shown) [noribogaine glucuronide], for which, in data set [1] (setting [8]), the AUC0-216 amounted to 25.7 ng·h/mL, the “AUC0-∞” value amounted to 25.8 ng·h/mL, the maximum concentration (Cmax) worked out at 1.8 ng/mL and the time to peak (Tmax) was 3.0 h. In addition, the t1/2 in data set [1] (setting [8]) was found to be 20.6 h. In addition, in data set [1] (setting [9]), the AUC0-216 worked out at 65.0 ng·h/mL, the “AUC0-∞” value was 67.1 ng·h/mL, the Cmax stood at 4.1 ng/mL and the Tmax was determined as 3.8 h. Besides, the t1/2 in data set [1] (setting [9]) was 23.1 h.

In general, CL/F refers to clearance divided by bioavailability, as obtained after extravascular dosing. By AUC is commonly meant the area under the concentration-time curve, a measure of exposure. For orientation: AUC(0-t) means the area under the concentration-time curve up to a stated or last time point. As a reminder, the half-life is how long it takes for the measured level to halve. The term Vd/F denotes the volume of distribution divided by bioavailability. In the case of `CC[C@H]1CC2C[C@H]3c4[nH]c5ccc(O)cc5c4CCN(C2)C13` [noribogaine], the headaches entry is on record as “frequent” in data set [2] (60 mg treatment group); “attenuated” in data set [2] (120 mg and 180 mg dose groups). In addition, the adverse events reported entry in data set [3] (3 mg dose group, by two subjects) was “five”; in data set [3] (10 mg dose group, single subject), “one”; in data set [3] (30 mg dose group, single subject), “one”. Also, the “intensity of adverse events” value in data set [3] (all dose groups, all resolved prior to study completion) is reported as “mild-moderate”. For the same compound, in data set [4] (120 mg), the “withdrawal symptoms (COWS, OOWS, SOWS), first six hours after dosing” value was “fewer withdrawal symptoms than the other patients”. Besides, the “time to resumption of OST, compared with untreated patients” value in data set [4] (180 mg, also longer than 60 mg group) was greater than 7 h. Also, the “withdrawal symptoms (COWS, OOWS, SOWS), noribogaine versus placebo” value in data set [4] (60, 120, 180 mg) is “Patients administered placebo generally experienced more withdrawal symptoms than patients who were administered noribogaine”. In addition, the “pupil diameter, each dose group versus placebo (ANOVA, baseline adjusted)” value in data set [5] was “no statistically significant differences”. In addition, the “duration of hand immersion, each dose group versus placebo (ANOVA)” value in data set [6] (ice water, p>0.9) is reported as “no statistically significant differences”. Also, in data set [6] (upon hand removal, p=0.17), the “VAS pain scores, each dose group versus placebo (ANOVA)” value is “no statistically significant differences”. Moreover, the apparent clearance CL/F was found to be 41.4 L/h in data set [1] (single oral 3 mg), 42.3 L/h in data set [1] (single oral 10 mg), 46.9 L/h in data set [1] (single oral 30 mg) and 34.0 L/h in data set [1] (single oral 60 mg). For the same compound, the exposure (AUC) in data set [7] (60 mg) fell in the range of 1120 to 2550 ng·h/mL; in data set [7] (120 mg), 1600 to 5770 ng·h/mL; in data set [7] (180 mg), 3730 to 12300 ng·h/mL. Also, the figures for the AUC(0-t) in data set [7] (60 mg), in data set [7] (120 mg) and in data set [7] (180 mg) were 1090 to 2530 ng·h/mL, 1560 to 5640 ng·h/mL and 3720 to 10400 ng·h/mL, respectively. Also, the maximum concentration (Cmax) in data set [7] (60 mg) lay within 41.3 to 113 ng/mL; in data set [7] (120 mg) it was 139 to 230 ng/mL; in data set [7] (180 mg) it was 205 to 338 ng/mL. The figures for the Tmax in data set [7] (60 mg), in data set [7] (120 mg) and in data set [7] (180 mg) were 2.5 to 5 h, 0.98 to 4.02 h and 3 to 8 h, respectively. Besides, the half-life in data set [7] (setting [10]) was 29.3 ± 7.28 h; in data set [7] (60 mg, range, Cohort 1 (60 mg)), 18.3 to 37.3 h; in data set [7] (setting [11]) it was 21.9 to 48.3 h; in data set [7] (setting [12]), 19.3 to 34.9 h. For the same compound, the Vd/F in data set [7] (setting [10]) is 1440 ± 854 L; in data set [7] (60 mg, range, Cohort 1 (60 mg)), 620 to 2770 L; in data set [7] (setting [11]), 824 to 5240 L; in data set [7] (setting [12]), 581 to 1610 L.

Source of the values: patent US20150258104A1, “USE OF N[…] THE TREATMENT OF PAIN” (DemeRX, Inc., priority 2014, published 2015).
